How the values were obtained:
Assay in all cases: relative viability (nuclei count vs DMSO), 5 days (fraction); higher = more cells survive
Dovitinib + Luminespib = compound: CN1CCN(c2ccc3nc(-c4c(N)c5c(F)cccc5[nH]c4=O)[nH]c3c2)CC1 [Dovitinib] + CCNC(=O)c1noc(-c2cc(C(C)C)c(O)cc2O)c1-c1ccc(CN2CCOCC2)cc1 [Luminespib] (partner 0.01 µM)
Outline: (§1)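 Values are medians from duplicate plates. Each reflects relative viability, defined as the nuclei count of treated wells over that of vehicle wells. Lung cancer cell lines in 1536-well plates were pin-tool dosed one day after seeding with one drug alone or with a fixed anchor-drug dose plus five library-drug doses (not always all listed) in √10 steps, then fixed, stained and imaged at 4× after 5 days.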

Dovitinib + Lapatinib = compound: CN1CCN(c2ccc3nc(-c4c(N)c5c(F)cccc5[nH]c4=O)[nH]c3c2)CC1 [Dovitinib] + CS(=O)(=O)CCNCc1ccc(-c2ccc3ncnc(Nc4ccc(OCc5cccc(F)c5)c(Cl)c4)c3c2)o1 [Lapatinib] (partner 2 µM)
Outline: as §1

Dovitinib + Decitabine = compound: CN1CCN(c2ccc3nc(-c4c(N)c5c(F)cccc5[nH]c4=O)[nH]c3c2)CC1 [Dovitinib] + Nc1ncn([C@H]2C[C@H](O)[C@@H](CO)O2)c(=O)n1 [Decitabine] (partner 2 µM)
Outline: as §1

Dovitinib + Olaparib = compound: CN1CCN(c2ccc3nc(-c4c(N)c5c(F)cccc5[nH]c4=O)[nH]c3c2)CC1 [Dovitinib] + O=C(c1cc(Cc2n[nH]c(=O)c3ccccc23)ccc1F)N1CCN(C(=O)C2CC2)CC1 [Olaparib] (partner 8 µM)
Outline: as §1

| Cell Line | relative viability (Dovitinib + Luminespib; first compound 0.02 µM) | relative viability (Dovitinib + Luminespib; first compound 0.06325 µM) | relative viability (Dovitinib + Luminespib; first compound 0.2 µM) | relative viability (Dovitinib + Luminespib; first compound 0.6325 µM) | relative viability (Dovitinib + Luminespib; first compound 2 µM) | relative viability (Dovitinib + Lapatinib; first compound 0.02 µM) | relative viability (Dovitinib + Lapatinib; first compound 0.06325 µM) | relative viability (Dovitinib + Lapatinib; first compound 0.2 µM) | relative viability (Dovitinib + Lapatinib; first compound 0.6325 µM) | relative viability (Dovitinib + Lapatinib; first compound 2 µM) | relative viability (Dovitinib + Decitabine; first compound 0.02 µM) | relative viability (Dovitinib + Decitabine; first compound 0.06325 µM) | relative viability (Dovitinib + Decitabine; first compound 0.2 µM) | relative viability (Dovitinib + Decitabine; first compound 0.6325 µM) | relative viability (Dovitinib + Decitabine; first compound 2 µM) | relative viability (Dovitinib + Olaparib; first compound 0.02 µM) | relative viability (Dovitinib + Olaparib; first compound 0.06325 µM) | relative viability (Dovitinib + Olaparib; first compound 0.2 µM) | relative viability (Dovitinib + Olaparib; first compound 0.6325 µM) | relative viability (Dovitinib + Olaparib; first compound 2 µM) |
| --- | --- | --- | --- | --- | --- | --- | --- | --- | --- | --- | --- | --- | --- | --- | --- | --- | --- | --- | --- | --- |
| COR-L23 | 0.581 | 0.788 | 0.695 | 0.664 | 0.72 | 0.918 | 0.983 | 1.04 | 1.01 | 0.882 | 0.439 | 0.43 | 0.438 | 0.501 | 0.484 | 0.296 | 0.383 | 0.379 | 0.353 | 0.342 |
| NCI-H1944 | 0.643 | 0.773 | 0.757 | 0.704 | 0.715 | 0.84 | 0.809 | 0.893 | 0.7 | 0.818 | 0.388 | 0.374 | 0.455 | 0.454 | 0.434 | 0.416 | 0.422 | 0.447 | 0.387 | 0.426 |
| NCI-H2405 | 0.657 | 0.579 | 0.7 | 0.58 | 0.817 | 1.1 | 0.946 | 1.04 | 1.09 | 1.35 | 0.714 | 0.745 | 0.832 | 0.688 | 0.845 | 0.858 | 0.849 | 0.944 | 0.815 | 0.903 |
| SK-LU-1 | 0.203 | 0.19 | 0.204 | 0.18 | 0.198 | 0.735 | 0.927 | 0.875 | 0.814 | 0.823 | 0.614 | 0.636 | 0.662 | 0.758 | 0.572 | 0.418 | 0.487 | 0.446 | 0.501 | 0.452 |
| EMC-BAC-2 | 1.19 | 1.13 | 1.16 | 1.05 | 0.986 | 0.886 | 0.839 | 0.898 | 0.807 | 0.923 | 1.1 | 0.958 | 1.06 | 1 | 1.01 | 0.569 | 0.513 | 0.5 | 0.486 | 0.504 |
| NCI-H1650 | 0.199 | 0.192 | 0.199 | 0.189 | 0.19 | 0.656 | 0.698 | 0.792 | 0.743 | 0.875 | 0.448 | 0.362 | 0.489 | 0.44 | 0.442 | 0.595 | 0.703 | 0.823 | 0.804 | 0.733 |
| NCI-H596 | 1.12 | 1.11 | 0.942 | 1.16 | 0.835 | 1.05 | 1.13 | 1.14 | 0.894 | 1 | 1.09 | 1.01 | 0.893 | 0.985 | 1.14 | 0.672 | 0.688 | 0.65 | 0.687 | 0.627 |
| LCLC-97TM1 | 0.953 | 0.746 | 0.831 | 0.801 | 0.701 | 0.835 | 0.752 | 1.02 | 0.602 | 1.03 | 0.188 | 0.118 | 0.203 | 0.217 | 0.206 | 0.371 | 0.443 | 0.369 | 0.364 | 0.255 |
| H3255 | 0.943 | 0.9 | 0.956 | 0.932 | 0.923 | 0.217 | 0.266 | 0.288 | 0.266 | 0.255 | 0.609 | 0.642 | 0.603 | 0.636 | 0.614 | 0.549 | 0.553 | 0.547 | 0.542 | 0.548 |
| LXF-289 | 0.722 | 0.683 | 0.737 | 0.677 | 0.663 | 0.813 | 0.904 | 0.88 | 0.867 | 0.873 | 0.438 | 0.402 | 0.391 | 0.372 | 0.359 | 0.974 | 1.08 | 1.07 | 1.1 | 0.976 |
| UMC-11 | 0.964 | 1.03 | 0.979 | 1 | 0.996 | 1.04 | 1.01 | 0.96 | 0.963 | 0.724 | 0.614 | 0.589 | 0.64 | 0.575 | 0.715 | 0.334 | 0.352 | 0.383 | 0.387 | 0.435 |
| LC-2-ad | 0.991 | 0.994 | 1.01 | 0.979 | 0.995 | 0.772 | 0.962 | 1.04 | 1.02 | 0.686 | 0.777 | 0.815 | 0.711 | 0.795 | 0.774 | 0.691 | 0.666 | 0.734 | 0.775 | 0.741 |
| SK-MES-1 | 0.653 | 0.949 | 0.785 | 0.661 | 0.887 | 0.438 | 0.47 | 0.482 | 0.524 | 0.437 | 0.358 | 0.404 | 0.381 | 0.414 | 0.348 | 0.682 | 0.749 | 0.74 | 0.773 | 0.829 |
| A-427 | 0.843 | 1.02 | 1.14 | 0.897 | 0.747 | 1.02 | 0.952 | 1.01 | 0.975 | 1.05 | 0.569 | 0.512 | 0.695 | 0.581 | 0.59 | 0.711 | 0.641 | 0.773 | 0.797 | 0.822 |
| NCI-H322M | 0.835 | 0.883 | 0.831 | 0.803 | 0.792 | 0.5 | 0.53 | 0.587 | 0.657 | 0.57 | 0.667 | 0.692 | 0.746 | 0.737 | 0.705 | 0.727 | 0.697 | 0.74 | 0.858 | 0.881 |
| NCI-H1975 | 0.991 | 0.19 | 0.422 | 0.146 | 0.217 | 0.899 | 0.979 | 0.917 | 0.89 | 0.907 | 0.372 | 0.409 | 0.4 | 0.424 | 0.382 | 0.733 | 0.912 | 0.671 | 0.792 | 0.74 |

— the supplement of paper PMC10307832
